# From PMC4632086, “Effects and possible mechanisms of action of acacetin on the behavior and eye morphology of Drosophila models of Alzheimer’s disease” (Scientific Reports, 2015)
# Like-named read-outs stand apart in the source and are kept apart here.
# Key:
# [1] = tested on: human BACE-1; details: cited from earlier work
# [2] = target: T1, recombinant human BACE-1 (Homo sapiens, UniProt P56817); assay: FRET-based enzyme assay, BACE-1 inhibition; type: biochemical; details: for IC50: pH 4.5, 1 h at 25 °C; for Slope ± SE: slope of concentration-inhibition fit
# T1 construct: purchased R&D Systems (Minneapolis, MN, USA)
# T1 sequence (P56817 46-501): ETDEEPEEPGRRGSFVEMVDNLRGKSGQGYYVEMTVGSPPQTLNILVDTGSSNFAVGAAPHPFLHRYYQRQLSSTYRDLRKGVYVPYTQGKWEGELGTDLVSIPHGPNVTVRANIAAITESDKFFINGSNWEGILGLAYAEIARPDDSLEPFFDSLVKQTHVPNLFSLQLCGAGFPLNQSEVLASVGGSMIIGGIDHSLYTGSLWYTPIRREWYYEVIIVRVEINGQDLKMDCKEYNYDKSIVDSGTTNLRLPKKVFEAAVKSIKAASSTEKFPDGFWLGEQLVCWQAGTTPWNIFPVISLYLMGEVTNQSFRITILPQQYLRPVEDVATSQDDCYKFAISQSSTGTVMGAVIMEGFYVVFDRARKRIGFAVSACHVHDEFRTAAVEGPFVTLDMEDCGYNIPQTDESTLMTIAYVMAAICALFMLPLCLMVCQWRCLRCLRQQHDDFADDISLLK
# [3] = tested on: transgenic Drosophila AD models; set-up: method as in PMID 22348084; details: five different transgenic Drosophila AD models; cited from earlier work
smiles,measurement,setting,value
C/C=C/c1cc(=O)c2c(C)cc(OC)c([C@@H]3O[C@H](CO)[C@@H](O)[C@H](O)[C@H]3O)c2o1 [C-2′-decoumaroyl-aloeresin G],IC50,[1]; benzopyranoids,20.5 µM
"CC1(C)CC[C@]2(C(=O)O)CC[C@]3(C)C(=CC[C@@H]4[C@@]5(C)C[C@@H](O)[C@H](O)C(C)(C)[C@@H]5CC[C@]43C)[C@@H]2C1 [Maslinic acid, maslinic acid]",IC50,"[2]; IC50, μM (95% CL)",488 µM
same,Slope ± SE,[2],1.4 ± 0.09
"CC1(C)CC[C@]2(C(=O)O)CC[C@]3(C)C(=CC[C@@H]4[C@@]5(C)CC[C@H](O)C(C)(C)[C@@H]5CC[C@]43C)[C@@H]2C1 [Oleanolic acid, oleanolic acid]",IC50,"[2]; read-out: IC50, μM (95% CL)",355 µM
"COc1ccc(-c2cc(=O)c3c(O)cc(O)cc3o2)cc1 [Pure acacetin, acacetin]",IC50,"[2]; read-out: IC50, μM (95% CL)",81.2 µM
same,Slope ± SE,[2],0.4 ± 0.03
COc1cc(C)c2c(=O)cc(C[C@@H](C)O)oc2c1[C@@H]1O[C@H](CO)[C@@H](O)[C@H](O)[C@H]1OC(=O)/C=C/c1ccc(O)cc1 [aloeresin D],IC50,[1]; benzopyranoids,39 µM
C=C[C@@](C)(/C=C/c1ccc(O)cc1)CCC=C(C)C [bakuchiol],IC50,[1],21.4 µM
O=C(O[C@@H]1O[C@@H]2COC(=O)c3cc(O)c(O)c(O)c3-c3c(cc(O)c(O)c3O)C(=O)O[C@H]([C@H]1O)[C@@H]2O)c1cc(O)c(O)c(O)c1 [corilagin],IC50,[1]; tannins,34 µM
COc1cc(/C=C/C(=O)CC(=O)/C=C/c2ccc(O)c(OC)c2)ccc1O [curcumin],improved lifespan,[3],up to 75%
COc1cc2c(cc1OC)-c1cc3ccc4c(c3c[n+]1CC2)OCO4 [epiberberi],IC50,[1]; alkaloids,8.55 µM
O=C1O[C@H]2[C@@H]3OC(=O)c4cc(O)c(O)c(O)c4-c4c(cc(O)c(O)c4O)C(=O)OC[C@H]2O[C@@H](OC(=O)c2cc(O)c(O)c(O)c2)[C@@H]3OC(=O)c2cc(O)c(O)c3c2[C@@H]2C1=CC(=O)[C@](O)(O3)C2(O)O [geraniin],IC50,[1]; tannins,4 µM
COc1cc2c(cc1O)CC[n+]1cc3c4c(ccc3cc1-2)OCO4 [groenlandicine],IC50,[1]; alkaloids,19.7 µM
O=C(O)/C=C/c1ccc(O)cc1 [p-coumaric acid],IC50,[1]; phenylpropanoids,90 µM
